Tests used:
FL EGFR = target: T1, FL EGFR (Homo sapiens, UniProt P00533); experiment: EGFR kinase assay (ADP-Glo); assay type: biochemical
T1 construct: kinase domain of EGFR (amino acids 695-1210); purchased Promega V3831
Method: A peptide containing the kinase domain of EGFR (amino acids 695-1210) was used to assess the inhibitory potency of the inhibitors. The ADP-Glo kinase assay (Promega V9101), and the EGFR kinase enzyme (Promega V3831) were used according to the supplier's instructions. Briefly, […] reactions were assembled in wells of a 384 well plate as follows: 5 μL of the kinase reaction, 5 μL of the ADP depletion reagent, and 10 μL of the luciferase reagent. For the kinase reaction: 1 μL of the inhibitor (dissolved in DMSO) was mixed with 2 μL EGFR peptide ([…]), 1 μL of a poly Glu4Tyr1 peptide (0.2 μg/μL), 1 μL reaction buffer, and 1 μL of ATP (final concentration of 5 μM). The kinase reaction was incubated at room temperature for 1 hour. 5 μL of the ATP depletion/kinase terminating reagent was mixed into each well and incubated at room temperature for 40 minutes. 10 μL of the kinase detection reagent containing luciferase was mixed into each well and incubated at room temperature for 30 minutes for bioluminescent detection of ADP produced from the kinase reaction in step 1. Bioluminescent signal was detected in a Tecan Safire^2 with a black plug covering the excitation filter, and an empty emission filter. The integration time was increased to […] to detect enough luminescence per reading.

BAK = target: T2, BAK (Mus musculus, UniProt O08734); experiment: Permeabilization of isolated mitochondria, Smac-mCherry release (BIM activated BAK); assay type: biochemical; details: concentrations up to 60 uM
T2 construct: endogenous in cells; host or cells: heavy membranes (mitochondria) of BAX-/- baby mouse kidney cells expressing Smac-mCherry
T2 sequence (O08734 2-209 limits assumed): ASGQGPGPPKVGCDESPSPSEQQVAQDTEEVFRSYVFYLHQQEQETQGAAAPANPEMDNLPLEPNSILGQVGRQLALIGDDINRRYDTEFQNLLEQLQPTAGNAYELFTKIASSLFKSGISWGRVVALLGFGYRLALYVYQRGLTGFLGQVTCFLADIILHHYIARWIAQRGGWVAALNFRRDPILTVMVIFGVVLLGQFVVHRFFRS

[1] = system: Baby Mouse Kidney (BMK) cells; experiment: Actinomycin D / spontaneous cell death assay in BMK cells; assay type: cell-based; details: for tolerability by the cells: BMKwt cells; for effect on spontaneous cell death / effect on actinomycin D induced cell death: BMKwt; for effect on spontaneous cell death: 0 mM actinomycin D; for effect on actinomycin D induced cell death: 3.125, 6.25, 12.5 nM actinomycin D
Method: Baby Mouse Kidney (BMK) cells were from (Mathew et al., 2008). BMK double knockout, SMAC-mCherry, and BAX^−/− cell lines were generated in house as described (Niu et al., 2017). BMK lines were grown in DMEM supplemented with 10% Fetal Bovine Serum and 1×MEM non-essential amino acids in a humidified incubator at 37° C. and 5% CO2.
For cell death assays with actinomycin D, 3000 WT or DKO BMK cells were cultured in a 384 well plate and incubated overnight. The next morning, cells were treated with actinomycin D for 2 hours before the addition of BAX inhibitor. Actinomycin D and BAX inhibitor (where relevant) were then incubated for 24 hours before staining with Hoechst, AnnexinV-Alexa488, and TMRE for 30 minutes. Cells were imaged by confocal microscopy (Opera Phenix—PerkinElmer) and subsequently analyzed with Harmony (PerkinElmer) software. Cell death was scored by three criteria: the loss of TMRE signal, the appearance of AnnexinV-Alexa488 signal, and nuclear shrinkage visualized by Hoechst.

T1 sequence (P00533 695-1210): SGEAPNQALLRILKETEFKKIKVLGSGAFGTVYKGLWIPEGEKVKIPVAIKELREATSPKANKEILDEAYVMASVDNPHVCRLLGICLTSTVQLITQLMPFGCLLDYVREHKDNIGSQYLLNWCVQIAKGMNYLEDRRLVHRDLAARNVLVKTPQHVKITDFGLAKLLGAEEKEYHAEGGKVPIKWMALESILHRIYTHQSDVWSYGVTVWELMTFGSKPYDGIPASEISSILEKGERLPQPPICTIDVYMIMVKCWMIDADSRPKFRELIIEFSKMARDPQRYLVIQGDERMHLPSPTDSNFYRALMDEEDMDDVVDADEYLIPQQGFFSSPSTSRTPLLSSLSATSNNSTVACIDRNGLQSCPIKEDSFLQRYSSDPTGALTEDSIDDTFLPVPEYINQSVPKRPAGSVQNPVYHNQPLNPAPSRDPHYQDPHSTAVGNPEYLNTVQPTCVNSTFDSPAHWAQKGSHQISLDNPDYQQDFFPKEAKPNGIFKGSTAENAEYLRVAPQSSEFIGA

SMILES | kinase inhibitory activity (FL EGFR; at or below 10 uM) | inhibition of BAK mediated permeabilization of mitochondria (BAK) | inhibition of actinomycin D mediated cell death in cells expressing either BAX or BAK ([1]; 1.25 or 2.5 uM compound, actinomycin D 25 nM (wild-type), 100 nM (knock-out)) | tolerability by the cells [1] | effect on spontaneous cell death [1] | effect on actinomycin D induced cell death [1] | Hill Slope (FL EGFR; FL EGFR) | spontaneous cell death in culture ([1]; BMK-wt, 0 nM actinomycin D, from ~30% without compound) [%]
COc1cc2ccnc(Nc3ccc(F)c(Cl)c3)c2cc1NC(=O)CCCN1CCCCC1 [Compound I-1, N-(1-((3-chloro-4-fluorophenyl)amino)-6-methoxyisoquinolin-7-yl)-4-(piperidin-1-yl)butanamide] | no appreciable kinase inhibitory activity | equally effective inhibitors | most effective inhibitor | well-tolerated | reduced the amount of spontaneous cell death | reduced cell death | – | –
COc1cc2ncnc(Nc3ccc(F)c(Cl)c3)c2cc1NC(=O)/C=C/CN1CCCCC1 [Dacomitinib, reference compound] | – | equally effective inhibitors | – | well-tolerated | reduced the amount of spontaneous cell death | reduced cell death | −1.3 | < 10
